# Measurements as given in ChEMBL document CHEMBL1146675, “Kringle 5 peptide-albumin conjugates with anti-migratory activity” (Bioorg Med Chem Lett, 2004).
# Peptide text beside a SMILES is read from it. * marks the point of attachment. Propanoyl(3-maleimido) = O=C1C=CC(=O)N1CCC(=O)*
# Organism: Homo sapiens
# Assay: Percent of unbound maleimide to human serum albumin
# Type: functional
row,SMILES,Activity
1,CC(=O)N[C@@H](CCCN=C(N)N)C(=O)N[C@@H](CC(N)=O)C(=O)N1CCC[C@H]1C(=O)N[C@@H](CC(=O)O)C(=O)NCC(=O)N[C@@H](CC(=O)O)C(=O)N[C@H](C(=O)NCC(=O)NCC(=O)N1CCC[C@H]1C(=O)N[C@@H](Cc1c[nH]c2ccccc12)C(=O)N[C@@H](C)C(=O)N[C@@H](Cc1ccc(O)cc1)C(=O)N[C@H](C(=O)N[C@H](C(=O)N[C@@H](CC(N)=O)C(=O)N1CCC[C@H]1C(=O)N[C@@H](CCCN=C(N)N)C(=O)N[C@@H](CCCCN)C(=O)N[C@@H](CC(C)C)C(=O)N[C@@H](Cc1ccc(O)cc1)C(=O)N[C@@H](CC(=O)O)C(=O)N[C@@H](Cc1ccc(O)cc1)C(=O)N[C@@H](CCCCNC(=O)CCN1C(=O)C=CC1=O)C(N)=O)[C@@H](C)O)[C@@H](C)O)C(C)C (Ac-RNPDGDVGGPWAYTTNPRKLYDYK(Propanoyl(3-maleimido))-NH2),0.22%
2,CC(C)C[C@H](NC(=O)[C@H](CCCCN)NC(=O)[C@H](CCCN=C(N)N)NC(=O)[C@@H]1CCCN1C(=O)CCN1C(=O)C=CC1=O)C(=O)N[C@@H](Cc1ccc(O)cc1)C(=O)N[C@@H](CC(=O)O)C(=O)N[C@@H](Cc1ccc(O)cc1)C(N)=O ({Propanoyl(3-maleimido)}-PRKLYDY-NH2),1.1%
3,CC(C)C[C@H](NC(=O)[C@H](CCCCN)NC(=O)[C@H](CCCN=C(N)N)NC(=O)[C@@H]1CCCN1C(=O)[C@H](CC(N)=O)NC(=O)[C@@H](NC(=O)[C@@H](NC(=O)[C@H](Cc1ccc(O)cc1)NC(=O)[C@H](C)NC(=O)[C@H](Cc1c[nH]c2ccccc12)NC(=O)[C@@H]1CCCN1C(=O)CNC(=O)CNC(=O)[C@@H](NC(=O)[C@H](CC(=O)O)NC(=O)CNC(=O)[C@H](CC(=O)O)NC(=O)[C@@H]1CCCN1C(=O)[C@H](CC(N)=O)NC(=O)[C@H](CCCN=C(N)N)NC(=O)CCN1C(=O)C=CC1=O)C(C)C)[C@@H](C)O)[C@@H](C)O)C(=O)N[C@@H](Cc1ccc(O)cc1)C(=O)N[C@@H](CC(=O)O)C(=O)N[C@@H](Cc1ccc(O)cc1)C(N)=O ({Propanoyl(3-maleimido)}-RNPDGDVGGPWAYTTNPRKLYDY-NH2),1.6%
